Source: publication PMC8599855, “Detection of cancer stem cells by EMT-specific biomarker-based peptide ligands” (Scientific Reports, 2021)
Values belong to the substance of their own block, whether it stands above or below them.

Columns and labels:
[1] = system: SAS spheres expressing CD44; assay: Peptide binding to tumor spheres (confocal microscopy); type: cell-based, human; conditions: fluorescein-labeled peptides, 24 h incubation
Excerpt: Figure 2 Expression of CSC markers corresponding to peptide binding. (a) Phase-contrast photomicrographs of the spheres cultured from SAS-E2-crimson-P2A::ttksr39 cell line using the ultra-low attachment plate. Right panel: adherent cells. magnification, 100×. (b) ICC results showing the expression of representative CSC marker, CD44 and EMT markers, vimentin and nucleolin in spheres (upper panel) and adherent cells (lower panel). E-cadherin is an epithelial cell marker. (c) The peptide binding to tumor spheres which highly expressed CD44. The arrow indicates the presence of F7 and SP peptide. Red: Lissamine Rhodamine labeled F7 peptide, Green: FITC labeled SP peptide, Blue: DAPI; Scale bar, 20 μm. (d) Comparison of peptides binding to spheres and adherent cells. Yellow: colocalization.
SAS cells were seeded in a 6-well cell culture plate with ultra-low attachment (Corning Costar, Tewksbury, MA, USA) at the density of 1 × 10^5 cells/well and incubated for 3–5 days in a 5% CO2 humidified incubator at 37 °C. All measurements on the SAS spheroids were carried out with a diameter of approximately 0.75 mm. For ICC-IF staining, the spheroids were fixed in 3.7% paraformaldehyde, washed with PBS and permeated with 0.1% Triton X-100 for 10 min before blocking with 20% FBS for 10 min at 37 °C, followed by the incubation with anti-CD44 antibody (GTX102111, GeneTex, Irvine, CA, USA) at 4 °C overnight. […]

SAS cells [2] = assay: Fluorescence-based peptide binding assay (confocal microscopy); type: cell-based, human; conditions: 50 ng/μl labeled peptide, 37 °C; for Cell uptake: fluorescent signal in cytoplasm: one hour and later
Procedure: Figure 1 Evaluation of peptide binding activity to SAS cells. (a) IF analysis of F7 peptide and SP peptide binding to SAS cells. […] Red: Lissamine Rhodamine labeled F7 peptide, Green: FITC labeled SP peptide, Blue: DAPI; BF, bright field; Scale bar, 10 μm. (b) The kinetics of F7 peptide binding to SAS-EGFP-Fluc cells. Cells were incubated in the presence of 50 ng/μl peptides at 37 °C for the indicated periods of time. (c) The kinetics of SP peptide binding to SAS-E2-crimson-P2A::ttksr39 cells at indicated time points.
SAS-EGFP-Fluc and SAS-E2-crimson-P2A::ttksr39 were seeded on 8-well chamber slides and incubated with fluorescein labeled F7 peptide and SP peptide respectively for the different time points (0, 0.25, 0.5, 1, 2, 4, 8, 12 and 24 h). HEK293 cell lines without expression of vimentin and nucleolin served as a negative control for the specificity of peptides. After removal of the medium and a PBS rinse, the cells were fixed with 3.7% paraformaldehyde for 10 min followed by PBS washing for 3 times. Subsequently, all slides were mounted with VECTASHIELD Mounting Medium with DAPI (cat. H-1200, Vector Labs, Burligame, CA, USA) and covered with cover glasses before visualization under a laser-scanning microscope (Zeiss LSM 880, Jena, Germany) with Zen Blue software (ZEISS, Jena, Germany).

SAS xenograft tumor = assay: Peptide binding in tumor after intra-tumoral injection (IF of excised tumor); type: in vivo, mouse; conditions: intra-tumoral injection on day 31, tumors excised after 24 h; Unc0642/IR-treated groups versus control; F7 in SAS-EGFP-Fluc, SP in SAS-wt tumors
Excerpt: Figure 5 Evaluation of peptide binding ability in SAS xenograft mouse model after the treatment of Unc0642/IR. (a) Schematic diagram for in vivo EMT induction via the treatment of Unc0642 and radiation. (b) Evaluation of the effect of Unc0642/IR in SAS-EGFP-Fluc-bearing mice by optical bioluminescence image. (c) Tumor burden of each group was monitored at indicated time points. Data represent mean ± SD (n = 5–6/group). *p < 0.05, **p < 0.01, ***p < 0.001 by Student’s t-test. ***p = 0.00058, Ctrl versus Unc0642 on day 14; *p = 0.049, Ctrl versus IR on day 18; **p = 0.0023, Ctrl versus IR on day 21; *p = 0.0179, Ctrl versus IR on day 24; *p = 0.036, Ctrl versus Unc0642 + IR on day 24. (d) The body weights of mice were recorded during the period of monitoring. Data are mean ± SD (n = 5–6/group). (e, f) Mice were given an intra-tumoral injection of peptide. At 24 h later, tumor samples were excised and the signal derived from the peptide was observed using confocal microscopy. Representative confocal micrographs of tissue sections immunolabeled with CD44. The arrowheads indicate the presence of F7 and SP peptide. Blue: DAPI. Scale bar, 20 μm. […]

EMT-induced SAS cells = assay: Flow cytometry analysis of peptide binding to EMT-induced cells; type: cell-based, human; conditions: 50 ng/μl labeled peptide, 24 h, 37 °C, after Unc0642 and/or IR treatment
Procedure: Figure 4 Evaluation of peptide binding activity to EMT derived cells induced by Unc0642/IR. After treatment of Unc0642 or radiation, EMT derived cells were incubated for 24 h in the presence of 50 ng/μl of fluorescein-labeled F7 (a) and SP peptide (b) at 37 °C respectively. FACS analysis was performed on gated live cells and light scatter parameters were measured using the 488 nm laser. The dot plot represented the particle size (FSC) versus granularity (SSC) of the cell population. The histogram represented the number of cells from P1 and P2 regions displaying a given fluorescence signal. Right graph: the quantitative analysis in the ratio of fluorescein-labeled peptides binding to SAS cells.
The cells were treated for EMT induction as described above. Then, 50 ng/μl of F7 and SP peptides were added into the culture medium and co-incubated for 24 h. The cells were detached and fixed with 3.7% paraformaldehyde for 15 min followed by resuspension in PBS. FACS analysis was performed on gated live cells using a flow cytometer (Beckman Coulter CytoFLEX, Brea, CA, USA).

[3] = 37 °C, ref previous studies; cited from earlier work
Excerpt: Despite the cancer cells captured by F7 or SP peptide were identified as CSCs that expressed CD44, single peptide binding cells (F7+ or SP+) and double peptides binding cells (F7+ /SP+ , as shown in Fig. 2d) were considered as different subpopulations that exist at the different stages of cancer. […] There are several possibilities for these findings. First, the permeability ...

SAS cells [4] = assay: Western blot of EMT/CSC markers after in vitro induction of EMT; type: cell-based, human; conditions: TGF-β1 10 and 20 ng/ml, SAS cells, immunoblotting (Fig. S2)
Procedure: To induce the EMT of SAS cells, cells were seeded in 60 mm^2 dishes at the density of 1 × 10^6 cells/dish overnight and incubated with 1.25 and 10 μM Unc0642. After 24 h, cells were exposed under 2 Gy and 4 Gy of radiation by a RS2000 Series Biological Irradiator (Rad Source Technologies Inc, Buford, GA, USA) and replaced with fresh Unc0642 containing medium every 24 h. The expression of vimentin and E-cadherin were detected by western blotting.
Cultured cells were placed on ice, washed by ice-cold PBS and lysed using CytoBuster Protein Extraction Reagent (cat. 71,009, Bedford, MA, USA) containing Protease Inhibitor Cocktail Set I (cat. 539131, Millipore, Bedford, MA, USA). Cells were then scraped, collected in Eppendorf tubes and the sonicated for 30 min. The lysate was spun down at 12,000 g for 10 min at 4 °C. The protein content was measured using Bradford reagent (BIO-RAD, Hercules, CA, USA). The equal amounts of protein (40 μg) were separated in SDS-PAGE gels (30% Acrylamide/Bis Solution, 29:1, cat. 1610157, BIO-RAD, Hercules, CA, USA) and transferred to PVDF membranes (cat. NEF1002001PK, Perkin-Elmer life sciences, Boston, MA, USA). For immunoblotting, membranes were cut in terms of the molecular weight range prior to hybridization with primary antibody for vimentin (GTX100619, GeneTex, Irvine, CA, USA), nucleolin (GTX132778, GeneTex, Irvine, CA, USA), E-cadherin (GTX50757, GeneTex, Irvine, CA, USA) and b-actin (GTX109639, GeneTex, Irvine, CA, USA) overnight at 4 °C and then incubated with horseradish peroxidase HRP-conjugate goat anti-rabbit IgG (GeneTex, Irvine, CA, USA). Protein signals were visualized using a LumiFast Chemiluminescence Detection Kit (cat. JT96-K001S, T-Pro Biotechnology, Taiwan). Image capture was performed on an ImageQuant LAS4000 biomolecular image (GE healthcare life, Chicago, IL, USA). The intensities of protein bands were quantitated using ImageJ Gel Analysis program. Quantification of protein expression was performed by Image J. b-actin was used as loading control.

Binding to CD44 expressing spheres [1]: able to bind and detect CSCs
Substance: DMPGTVLP [F7 peptide]
Intracellular localisation at 24 h (SAS cells [2]): remained at the edge of nucleus and no longer moved | Cell uptake: fluorescent signal in cytoplasm (SAS cells [2]): appeared in cytoplasm gradually and accumulated with the incubation time | Amount of labeled peptide in tumor tissue (SAS xenograft tumor): increased in tumor tissues | Peptide binding to EMT-induced SAS cells (FACS) (EMT-induced SAS cells): increased with increasing dose of IR and Unc0642 | Stability in the presence of serum [3]: high stability

Binding to CD44 expressing spheres [1]: able to bind and detect CSCs
Substance: SAHGTSTGVPWP [SP peptide]
Intracellular localisation at 24 h (SAS cells [2]): remained at the edge of nucleus and no longer moved | Cell uptake: fluorescent signal in cytoplasm (SAS cells [2]): appeared in cytoplasm gradually and accumulated with the incubation time | Amount of labeled peptide in tumor tissue (SAS xenograft tumor): increased in tumor tissues | Peptide binding to EMT-induced SAS cells (FACS) (EMT-induced SAS cells): significantly higher in combined Unc0642- and IR-treated SAS cells | Stability in the presence of serum [3]: high stability

Substance: TGF-β1: multifunctional cytokine used to induce EMT
E-cadherin expression (SAS cells [4]): downregulated the expression of E-cadherin | Vimentin expression (SAS cells [4]): upregulated the expression of vimentin
